{"source": "PubChem BioAssay AID1963841", "about": "(Molecular Pharmacology Branch, DTP, NCI, 2024)", "tested_on": "439559-082-T-J2-PDC spheroid viability", "experiment": "Anticancer human tumor 439559-082-T-J2-PDC patient-derived colon adenocarcinoma cell line growth inhibition [POLQ]", "conditions": "spheroids with HUVEC and MSC; for viability, T/C: stronger effect = lower value", "summary_of_the_method": "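Complex spheroid viability model combining PDC tumour cells with endothelial (HUVEC) and MSC stromal cells. Novobiocin, ART-558 or RP6685 were tested singly and in combination with standard and investigational anticancer drugs. Each was titrated in half-log steps from near clinical Cmax, or from 10 microM where Cmax was unknown.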", "key": {"[1]": {"conditions": "curve of first compound, second compound 0.0316 µM"}, "[2]": {"conditions": "curve of first compound, second compound 0.1 µM"}, "[3]": {"conditions": "curve of first compound, second compound 0.316 µM"}, "[4]": {"conditions": "curve of first compound, second compound 1 µM"}, "[5]": {"conditions": "curve of first compound, second compound 3.16 µM"}, "[6]": {"conditions": "curve of first compound, second compound 10 µM"}, "[7]": {"conditions": "second compound 0.0316 µM, first compound 0.0316 µM"}, "[8]": {"conditions": "second compound 0.0316 µM, first compound 0.1 µM"}, "[9]": {"conditions": "second compound 0.0316 µM, first compound 0.316 µM"}, "[10]": {"conditions": "second compound 0.0316 µM, first compound 1 µM"}, "[11]": {"conditions": "second compound 0.0316 µM, first compound 3.16 µM"}, "[12]": {"conditions": "second compound 0.0316 µM, first compound 10 µM"}, "[13]": {"conditions": "second compound 0.1 µM, first compound 0.0316 µM"}, "[14]": {"conditions": "second compound 0.1 µM, first compound 0.1 µM"}, "[15]": {"conditions": "second compound 0.1 µM, first compound 0.316 µM"}, "[16]": {"conditions": "second compound 0.1 µM, first compound 1 µM"}, "[17]": {"conditions": "second compound 0.1 µM, first compound 3.16 µM"}, "[18]": {"conditions": "second compound 0.1 µM, first compound 10 µM"}, "[19]": {"conditions": "second compound 0.316 µM, first compound 0.0316 µM"}, "[20]": {"conditions": "second compound 0.316 µM, first compound 0.1 µM"}, "[21]": {"conditions": "second compound 0.316 µM, first compound 0.316 µM"}, "[22]": {"conditions": "second compound 0.316 µM, first compound 1 µM"}, "[23]": {"conditions": "second compound 0.316 µM, first compound 3.16 µM"}, "[24]": {"conditions": "second compound 0.316 µM, first compound 10 µM"}, "[25]": {"conditions": "second compound 1 µM, first compound 0.0316 µM"}, "[26]": {"conditions": "second compound 1 µM, first compound 0.1 µM"}, "[27]": {"conditions": "second compound 1 µM, first compound 0.316 µM"}, "[28]": {"conditions": "second compound 1 µM, first compound 1 µM"}, "[29]": {"conditions": "second compound 1 µM, first compound 3.16 µM"}, "[30]": {"conditions": "second compound 1 µM, first compound 10 µM"}, "[31]": {"conditions": "second compound 3.16 µM, first compound 0.0316 µM"}, "[32]": {"conditions": "second compound 3.16 µM, first compound 0.1 µM"}, "[33]": {"conditions": "second compound 3.16 µM, first compound 0.316 µM"}, "[34]": {"conditions": "second compound 3.16 µM, first compound 1 µM"}, "[35]": {"conditions": "second compound 3.16 µM, first compound 3.16 µM"}, "[36]": {"conditions": "second compound 3.16 µM, first compound 10 µM"}, "[37]": {"conditions": "second compound 10 µM, first compound 0.0316 µM"}, "[38]": {"conditions": "second compound 10 µM, first compound 0.1 µM"}, "[39]": {"conditions": "second compound 10 µM, first compound 0.316 µM"}, "[40]": {"conditions": "second compound 10 µM, first compound 1 µM"}, "[41]": {"conditions": "second compound 10 µM, first compound 3.16 µM"}, "[42]": {"conditions": "second compound 10 µM, first compound 10 µM"}}, "note": "“And” between values parts separate entries of the source, which are not always exact repeats. Equal entries are not always repeated.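 Also: spheroids exposed to compounds for seven days before readout.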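 For viability, T/C in this document: 100% = DMSO vehicle control viability.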", "data": [{"smiles": "O=C(Nc1ccc(O)c(NS(=O)(=O)c2ccc(F)cc2)c1)c1ccc(-c2ccccc2)cc1", "note": "+ COC1C(OC(N)=O)C(O)C(Oc2ccc3c(O)c(NC(=O)c4ccc(O)c(CC=C(C)C)c4)c(=O)oc3c2C)OC1(C)C", "values": [{"measurement": "IC50", "setting": "[1]", "result": "> 10", "unit": "µM"}, {"measurement": "IC50", "setting": "[2]", "result": "> 10", "unit": "µM"}, {"measurement": "IC50", "setting": "[3]", "result": "> 10", "unit": "µM"}, {"measurement": "IC50", "setting": "[4]", "result": "> 10", "unit": "µM"}, {"measurement": "IC50", "setting": "[5]", "result": "> 10", "unit": "µM"}, {"measurement": "IC50", "setting": "[6]", "result": "> 10", "unit": "µM"}, {"measurement": "viability, T/C", "setting": "[7]", "result": 93.1, "unit": "%"}, {"measurement": "viability, T/C", "setting": "[8]", "result": 94.8, "unit": "%"}, {"measurement": "viability, T/C", "setting": "[9]", "result": 94.1, "unit": "%"}, {"measurement": "viability, T/C", "setting": "[10]", "result": 97.9, "unit": "%"}, {"measurement": "viability, T/C", "setting": "[11]", "result": 106, "unit": "%"}, {"measurement": "viability, T/C", "setting": "[12]", "result": 101, "unit": "%"}, {"measurement": "viability, T/C", "setting": "[13]", "result": 98.8, "unit": "%"}, {"measurement": "viability, T/C", "setting": "[14]", "result": 99.4, "unit": "%"}, {"measurement": "viability, T/C", "setting": "[15]", "result": 102, "unit": "%"}, {"measurement": "viability, T/C", "setting": "[16]", "result": 107, "unit": "%"}, {"measurement": "viability, T/C", "setting": "[17]", "result": 103, "unit": "%"}, {"measurement": "viability, T/C", "setting": "[18]", "result": 97.3, "unit": "%"}, {"measurement": "viability, T/C", "setting": "[19]", "result": 99.3, "unit": "%"}, {"measurement": "viability, T/C", "setting": "[20]", "result": 99.9, "unit": "%"}, {"measurement": "viability, T/C", "setting": "[21]", "result": 99.8, "unit": "%"}, {"measurement": "viability, T/C", "setting": "[22]", "result": 97, "unit": "%"}, {"measurement": "viability, T/C", "setting": "[23]", "result": 104, "unit": "%"}, {"measurement": "viability, T/C", "setting": "[24]", "result": 102, "unit": "%"}, {"measurement": "viability, T/C", "setting": "[25]", "result": 102, "unit": "%"}, {"measurement": "viability, T/C", "setting": "[26]", "result": 98.4, "unit": "%"}, {"measurement": "viability, T/C", "setting": "[27]", "result": 93.5, "unit": "%"}, {"measurement": "viability, T/C", "setting": "[28]", "result": 103, "unit": "%"}, {"measurement": "viability, T/C", "setting": "[29]", "result": 104, "unit": "%"}, {"measurement": "viability, T/C", "setting": "[30]", "result": 89.8, "unit": "%"}, {"measurement": "viability, T/C", "setting": "[31]", "result": 107, "unit": "%"}, {"measurement": "viability, T/C", "setting": "[32]", "result": 93.2, "unit": "%"}, {"measurement": "viability, T/C", "setting": "[33]", "result": 92.3, "unit": "%"}, {"measurement": "viability, T/C", "setting": "[34]", "result": 96.5, "unit": "%"}, {"measurement": "viability, T/C", "setting": "[35]", "result": 99.8, "unit": "%"}, {"measurement": "viability, T/C", "setting": "[36]", "result": 98.3, "unit": "%"}, {"measurement": "viability, T/C", "setting": "[37]", "result": 97.2, "unit": "%"}, {"measurement": "viability, T/C", "setting": "[38]", "result": 98.7, "unit": "%"}, {"measurement": "viability, T/C", "setting": "[39]", "result": 102, "unit": "%"}, {"measurement": "viability, T/C", "setting": "[40]", "result": 103, "unit": "%"}, {"measurement": "viability, T/C", "setting": "[41]", "result": 101, "unit": "%"}, {"measurement": "viability, T/C", "setting": "[42]", "result": 104, "unit": "%"}]}, {"smiles": "CC(=O)O[C@H]1C(=O)[C@@]2(C)[C@H]([C@H](OC(=O)c3ccccc3)[C@]3(O)C[C@H](OC(=O)[C@H](O)[C@@H](NC(=O)c4ccccc4)c4ccccc4)C(C)=C1C3(C)C)[C@]1(OC(C)=O)CO[C@@H]1C[C@@H]2O", "values": [{"measurement": "viability, T/C", "setting": "compound 0.0949 µM", "result": "83% and 81.7% and 82.3%"}, {"measurement": "viability, T/C", "setting": "compound 0.3 µM", "result": "77.9% and 70.6% and 74.8%"}, {"measurement": "viability, T/C", "setting": "compound 0.949 µM", "result": "68.7% and 51.8% and 55.5%"}, {"measurement": "viability, T/C", "setting": "compound 3 µM", "result": "43.4% and 22.5% and 40.4%"}, {"measurement": "IC50", "setting": "curve of compound", "result": "2.24 µM and 1.18 µM and 1.44 µM"}]}, {"smiles": "O=C(c1cc(Cc2n[nH]c(=O)c3ccccc23)ccc1F)N1CCN(C(=O)C2CC2)CC1", "note": "+ Cc1cccc(N(C)C(=O)C2C(O)CCN2c2nc(C)cc(C(F)(F)F)c2C#N)c1", "values": [{"measurement": "IC50", "setting": "[1]", "result": "> 10", "unit": "µM"}, {"measurement": "IC50", "setting": "[2]", "result": "> 10", "unit": "µM"}, {"measurement": "IC50", "setting": "[3]", "result": "> 10", "unit": "µM"}, {"measurement": "IC50", "setting": "[4]", "result": "> 10", "unit": "µM"}, {"measurement": "IC50", "setting": "[5]", "result": "> 10", "unit": "µM"}, {"measurement": "IC50", "setting": "[6]", "result": "> 10", "unit": "µM"}, {"measurement": "viability, T/C", "setting": "[7]", "result": 95.8, "unit": "%"}, {"measurement": "viability, T/C", "setting": "[8]", "result": 103, "unit": "%"}, {"measurement": "viability, T/C", "setting": "[9]", "result": 107, "unit": "%"}, {"measurement": "viability, T/C", "setting": "[10]", "result": 107, "unit": "%"}, {"measurement": "viability, T/C", "setting": "[11]", "result": 95, "unit": "%"}, {"measurement": "viability, T/C", "setting": "[12]", "result": 92.1, "unit": "%"}, {"measurement": "viability, T/C", "setting": "[13]", "result": 103, "unit": "%"}, {"measurement": "viability, T/C", "setting": "[14]", "result": 98.7, "unit": "%"}, {"measurement": "viability, T/C", "setting": "[15]", "result": 101, "unit": "%"}, {"measurement": "viability, T/C", "setting": "[16]", "result": 109, "unit": "%"}, {"measurement": "viability, T/C", "setting": "[17]", "result": 94.4, "unit": "%"}, {"measurement": "viability, T/C", "setting": "[18]", "result": 101, "unit": "%"}, {"measurement": "viability, T/C", "setting": "[19]", "result": 103, "unit": "%"}, {"measurement": "viability, T/C", "setting": "[20]", "result": 100, "unit": "%"}, {"measurement": "viability, T/C", "setting": "[21]", "result": 98.4, "unit": "%"}, {"measurement": "viability, T/C", "setting": "[22]", "result": 108, "unit": "%"}, {"measurement": "viability, T/C", "setting": "[23]", "result": 102, "unit": "%"}, {"measurement": "viability, T/C", "setting": "[24]", "result": 97.1, "unit": "%"}, {"measurement": "viability, T/C", "setting": "[25]", "result": 103, "unit": "%"}, {"measurement": "viability, T/C", "setting": "[26]", "result": 106, "unit": "%"}, {"measurement": "viability, T/C", "setting": "[27]", "result": 102, "unit": "%"}, {"measurement": "viability, T/C", "setting": "[28]", "result": 103, "unit": "%"}, {"measurement": "viability, T/C", "setting": "[29]", "result": 98.8, "unit": "%"}, {"measurement": "viability, T/C", "setting": "[30]", "result": 98.8, "unit": "%"}, {"measurement": "viability, T/C", "setting": "[31]", "result": 94, "unit": "%"}, {"measurement": "viability, T/C", "setting": "[32]", "result": 106, "unit": "%"}, {"measurement": "viability, T/C", "setting": "[33]", "result": 98.4, "unit": "%"}, {"measurement": "viability, T/C", "setting": "[34]", "result": 98.3, "unit": "%"}, {"measurement": "viability, T/C", "setting": "[35]", "result": 103, "unit": "%"}, {"measurement": "viability, T/C", "setting": "[36]", "result": 95.2, "unit": "%"}, {"measurement": "viability, T/C", "setting": "[37]", "result": 97.9, "unit": "%"}, {"measurement": "viability, T/C", "setting": "[38]", "result": 91.4, "unit": "%"}, {"measurement": "viability, T/C", "setting": "[39]", "result": 95.3, "unit": "%"}, {"measurement": "viability, T/C", "setting": "[40]", "result": 98.3, "unit": "%"}, {"measurement": "viability, T/C", "setting": "[41]", "result": 97.5, "unit": "%"}, {"measurement": "viability, T/C", "setting": "[42]", "result": 83.6, "unit": "%"}]}]}
